Columns and labels:
[1] = molecular target: BCL-2 binding to biotinylated BAD peptide (Homo sapiens, UniProt P10415); assay: SPR (Biacore) solution inhibition assay, BCL-2 binding to BAD peptide surface; details: read-out: BCL2_SPR IC50 BAD
From the text: (§1) The present method includes utility of a Surface plasmon resonance (SPR)-based biosensor (Biacore™, GE Healthcare, Uppsala, Sweden) to characterize BCL-2 inhibitors.
(§2) Biacore™ utilizes the phenomenon of surface plasmon resonance (SPR) to detect and measure binding interactions. In a typical Biacore experiment, one of the interacting molecules (ligand) is immobilized on a flexible dextran matrix while the interacting partner (analyte) is allowed to flow across that surface. A binding interaction results in an increase in mass on the sensor surface and a corresponding direct change in the refractive index of the medium in the vicinity of the sensor surface. Changes in refractive index or signal are recorded in resonance units (R.U.) Signal changes due to association and dissociation of complexes are monitored in a non-invasive manner, continuously and in real-time, the results of which are reported in the form of a sensorgram.
(§3) The SPR assay is configured to examine solution inhibition of BCL-2 binding to peptide derivatized sensor surfaces to generate IC50 values as a measure of inhibitor potency.
(§4) Biacore™ A100 (GE Healthcare, Uppsala, Sweden) was used to conduct all experiments reported herein. Sensor surface preparation and all interaction analyses experiments were performed at 25° C. Reagents were purchased from GE Healthcare. Running buffer containing 10 mM Hepes, pH7.4, 150 mM sodium chloride, 1.25 mM Dithiothreitol, 3% Dimethyl sulfoxide and 0.05% polysorbate 20 were utilized throughout all analyses.
(§5) Biotinylated BAK, BAD and NOXA peptides were diluted to 10 nM in running buffer and captured onto a sensor surface pre-derivatized with streptavidin (sensor chip SA) to peptide surface densities in the range 50-100 R.U. Peptide captured surfaces were blocked with 500 μM PEO2-Biotin.
(§6) Interaction analyses were performed by first equilibrating each sample within a 6 point three fold compound dilution series in the range 16 μM to […] with 56 nM BCL-2 for one hour during instrument start-up procedures. Protein compound mixtures were then injected over each peptide surface in parallel for 60 seconds at a flow-rate of 30 μL/min. 56 nM BCL-2 control samples were also prepared and run at regular intervals during the assay. Surface regeneration was performed at the end of each analysis cycle by two 30 second injections of 10 mM Glycine, pH 2.5, 1M Sodium Chloride, 0.05% polysorbate 20. Samples and control compound samples were run in duplicate and controls are also run at regular intervals during the assay to monitor surface and assay performance.
(§7) Data analyses are carried out using Biacore™ A100 evaluation software v1.1 to validate assay quality. Binding level report points were used relative to BCL-2 control samples to calculate % inhibition values for each compound protein mixture. […] The range of data shown in table 1 represents the high and low IC50 values obtained from multiple experiments.

[2] = molecular target: BCL-2 binding to biotinylated BAK peptide (Homo sapiens, UniProt P10415); assay: SPR (Biacore) solution inhibition assay, BCL-2 binding to BAK peptide surface; details: read-out: BCL2_SPR IC50 BAK
Sequence of BCL-2 binding to biotinylated BAK peptide (P10415 whole entry): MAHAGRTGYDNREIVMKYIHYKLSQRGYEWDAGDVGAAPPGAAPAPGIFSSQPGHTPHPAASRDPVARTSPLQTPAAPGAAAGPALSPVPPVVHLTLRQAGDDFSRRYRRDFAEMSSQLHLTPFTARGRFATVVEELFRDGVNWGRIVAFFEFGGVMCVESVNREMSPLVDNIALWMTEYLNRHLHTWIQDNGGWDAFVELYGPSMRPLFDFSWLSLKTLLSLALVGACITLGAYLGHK
From the text: as §1, §2, §3, §4, §5, §6, §7

Sequence of BCL-2 binding to biotinylated BAD peptide (P10415 whole entry): as above

| IC50 [1] | IC50 [2] | SMILES |
| --- | --- | --- |
| 52 to 65.5 nM | 45.2 to 54.3 nM | CCCCN(CCCC)C(=O)c1cc(C)n(-c2ccc(NC(=O)NCc3ccccc3)cc2C(=O)N2Cc3ccccc3C[C@H]2CO)n1 [Example 1, (S)-1-(4-(3-benzylureido)-2-(3-(hydroxymethyl)-1,2,3,4-tetrahydroisoquinoline-2-carbonyl)phenyl)-N,N-dibutyl-5-methyl-1H-pyrazole-3-carboxamide] |
| 582 to 618 nM | 404 to 430 nM | CCCCN(CCCC)C(=O)c1cc(C)n(-c2ccc(NC(=O)NCC)cc2C(=O)N2Cc3ccccc3C[C@H]2CO)n1 [Example 2] |
| 894 to 1020 nM | 806 to 893 nM | CCCCN(CCCC)C(=O)c1cc(C)n(-c2ccc(NC(=O)Nc3cccc(OC)c3)cc2C(=O)N2Cc3ccccc3C[C@H]2CO)n1 [Example 3] |
| 86.3 to 91.3 nM | 73.1 to 75.7 nM | CCCCN(CCCC)C(=O)c1cc(C)n(-c2ccc(NC(=O)N[C@@H](C)c3ccccc3)cc2C(=O)N2Cc3ccccc3C[C@H]2CO)n1 [Example 4] |
| 72.3 to 78.3 nM | 73.2 to 77.1 nM | CCCCN(CCCC)C(=O)c1cc(C)n(-c2ccc(NC(=O)NCc3ccccc3OC)cc2C(=O)N2Cc3ccccc3C[C@H]2CO)n1 [Example 5] |
| 108 to 117 nM | 83.6 to 89.2 nM | CCCCN(CCCC)C(=O)c1cc(C)n(-c2ccc(NC(=O)NCc3ccc(OC)cc3)cc2C(=O)N2Cc3ccccc3C[C@H]2CO)n1 [Example 6] |
| 103 to 107 nM | 86.3 to 94.2 nM | CCCCN(CCCC)C(=O)c1cc(C)n(-c2ccc(NC(=O)NCc3ccccc3Cl)cc2C(=O)N2Cc3ccccc3C[C@H]2CO)n1 [Example 7] |
| 156 to 165 nM | 140 to 149 nM | CCCCN(CCCC)C(=O)c1cc(C)n(-c2ccc(NC(=O)NCc3ccc(Cl)cc3)cc2C(=O)N2Cc3ccccc3C[C@H]2CO)n1 [Example 8] |
| 334 to 357 nM | 250 to 273 nM | CCCCN(CCCC)C(=O)c1cc(C)n(-c2ccc(NC(=O)N[C@H](C)c3ccccc3)cc2C(=O)N2Cc3ccccc3C[C@H]2CO)n1 [Example 9] |
| 731 to 784 nM | 624 to 639 nM | CCCCN(CCCC)C(=O)c1cc(C)n(-c2ccc(NC(=O)Nc3ccc(C)c(C)c3)cc2C(=O)N2Cc3ccccc3C[C@H]2CO)n1 [Example 10] |
| 3020 to 3220 nM | 2710 to 2770 nM | CCCCN(CCCC)C(=O)c1cc(C)n(-c2ccc(NC(=O)Nc3ccc(F)c(C(F)(F)F)c3)cc2C(=O)N2Cc3ccccc3C[C@H]2CO)n1 [Example 11] |
| > 16000 nM | > 16000 nM | CCCCN(CCCC)C(=O)c1cc(C)n(-c2ccc(NC(=O)Nc3ccccc3Oc3ccccc3)cc2C(=O)N2Cc3ccccc3C[C@H]2CO)n1 [Example 12] |
| > 16000 nM | 8770 to 9190 nM | CCCCN(CCCC)C(=O)c1cc(C)n(-c2ccc(NC(=O)N[C@@H]3C[C@H]3c3ccccc3)cc2C(=O)N2Cc3ccccc3C[C@H]2CO)n1 [Example 13] |
| 494 to 509 nM | 343 to 356 nM | CCCCN(CCCC)C(=O)c1cc(C)n(-c2ccc(NC(=O)NC(C)C)cc2C(=O)N2Cc3ccccc3C[C@H]2CO)n1 [Example 14] |
| 150 to 157 nM | – | CCCCN(CCCC)C(=O)c1cc(C)n(-c2ccc(NC(=O)NCCc3ccccc3)cc2C(=O)N2Cc3ccccc3C[C@H]2CO)n1 [Example 15] |
| 786 to 983 nM | 812 to 962 nM | CCCCN(CCCC)C(=O)c1cc(C)n(-c2ccc(NC(=O)Nc3ccc(SC)cc3)cc2C(=O)N2Cc3ccccc3C[C@H]2CO)n1 [Example 16] |
| 89 to 108 nM | 85.1 to 85.9 nM | CCCCN(CCCC)C(=O)c1cc(C)n(-c2ccc(NC(=O)NCc3cccc(C)c3)cc2C(=O)N2Cc3ccccc3C[C@H]2CO)n1 [Example 17] |
| 1730 to 1760 nM | 1950 to 2010 nM | CCCCN(CCCC)C(=O)c1cc(C)n(-c2ccc(NC(=O)Nc3ccc(-c4ccccc4)cc3)cc2C(=O)N2Cc3ccccc3C[C@H]2CO)n1 [Example 18] |
| 725 to 805 nM | 736 to 857 nM | CCCCN(CCCC)C(=O)c1cc(C)n(-c2ccc(NC(=O)N[C@H](C)c3ccc(OC)cc3)cc2C(=O)N2Cc3ccccc3C[C@H]2CO)n1 [Example 19] |
| 71.1 to 75.4 nM | 69 to 80.5 nM | CCCCN(CCCC)C(=O)c1cc(C)n(-c2ccc(NC(=O)N[C@@H](C)c3ccc(OC)cc3)cc2C(=O)N2Cc3ccccc3C[C@H]2CO)n1 [Example 20] |

| IC50 [1] | IC50 [2] | SMILES |
| --- | --- | --- |
| 2640 to 3450 nM | 2740 to 3150 nM | CCCCN(CCCC)C(=O)c1cc(C)n(-c2ccc(NC(=O)Nc3ccccc3OC)cc2C(=O)N2Cc3ccccc3C[C@H]2CO)n1 [Example 21] |
| 1840 to 2170 nM | 1570 to 1730 nM | CCCCN(CCCC)C(=O)c1cc(C)n(-c2ccc(NC(=O)Nc3ccc(C#N)cc3)cc2C(=O)N2Cc3ccccc3C[C@H]2CO)n1 [Example 22] |
| 45.5 to 46.7 nM | 37 to 41.7 nM | CCCCN(CCCC)C(=O)c1cc(C)n(-c2ccc(NC(=O)N[C@@H](C)c3cccc(OC)c3)cc2C(=O)N2Cc3ccccc3C[C@H]2CO)n1 [Example 23] |
| 232 to 255 nM | 143 to 177 nM | CCCCN(CCCC)C(=O)c1cc(C)n(-c2ccc(NC(=O)Nc3ccc(OC)cc3C)cc2C(=O)N2Cc3ccccc3C[C@H]2CO)n1 [Example 25] |
| 2090 to 2440 nM | 1660 to 1700 nM | CCCCN(CCCC)C(=O)c1cc(C)n(-c2ccc(NC(=O)Nc3cccs3)cc2C(=O)N2Cc3ccccc3C[C@H]2CO)n1 [Example 26] |
| 900 to 962 nM | 846 to 861 nM | CCCCN(CCCC)C(=O)c1cc(C)n(-c2ccc(NC(=O)Nc3ccc(Cl)cc3C)cc2C(=O)N2Cc3ccccc3C[C@H]2CO)n1 [Example 27] |
| 508 to 697 nM | 551 to 618 nM | CCCCN(CCCC)C(=O)c1cc(C)n(-c2ccc(NC(=O)Nc3ccccc3OCC)cc2C(=O)N2Cc3ccccc3C[C@H]2CO)n1 [Example 28] |
| 2430 to 2560 nM | 1840 to 2440 nM | CCCCN(CCCC)C(=O)c1cc(C)n(-c2ccc(NC(=O)Nc3ccc4ccccc4c3)cc2C(=O)N2Cc3ccccc3C[C@H]2CO)n1 [Example 29] |
| 210 to 238 nM | 192 to 205 nM | CCCCN(CCCC)C(=O)c1cc(C)n(-c2ccc(NC(=O)Nc3c(C)cccc3C)cc2C(=O)N2Cc3ccccc3C[C@H]2CO)n1 [Example 30] |
| 2320 to 2500 nM | 1540 to 1580 nM | CCCCN(CCCC)C(=O)c1cc(C)n(-c2ccc(NC(=O)Nc3cccc(Cc4ccccc4)c3)cc2C(=O)N2Cc3ccccc3C[C@H]2CO)n1 [Example 31] |
| 445 to 463 nM | 279 to 284 nM | CCCCN(CCCC)C(=O)c1cc(C)n(-c2ccc(NC(=O)NC3CCCC3)cc2C(=O)N2Cc3ccccc3C[C@H]2CO)n1 [Example 32] |
| 440 to 448 nM | 337 to 378 nM | CCCCN(CCCC)C(=O)c1cc(C)n(-c2ccc(NC(=O)Nc3cccc(Cl)c3C)cc2C(=O)N2Cc3ccccc3C[C@H]2CO)n1 [Example 33] |
| 618 to 713 nM | 631 to 667 nM | CCCCN(CCCC)C(=O)c1cc(C)n(-c2ccc(NC(=O)Nc3c(C)cccc3CC)cc2C(=O)N2Cc3ccccc3C[C@H]2CO)n1 [Example 34] |
| 3200 to 3930 nM | 3010 to 3070 nM | CCCCN(CCCC)C(=O)c1cc(C)n(-c2ccc(NC(=O)Nc3ccc(F)c(F)c3)cc2C(=O)N2Cc3ccccc3C[C@H]2CO)n1 [Example 35] |
| > 16000 nM | > 16000 nM | CCCCN(CCCC)C(=O)c1cc(C)n(-c2ccc(NC(=O)Nc3cc(Cl)cc(Cl)c3)cc2C(=O)N2Cc3ccccc3C[C@H]2CO)n1 [Example 36] |
| 4060 to 4280 nM | 3760 to 3780 nM | CCCCN(CCCC)C(=O)c1cc(C)n(-c2ccc(NC(=O)Nc3cc(F)cc(F)c3)cc2C(=O)N2Cc3ccccc3C[C@H]2CO)n1 [Example 37] |
| 524 to 614 nM | 384 to 417 nM | CCCCN(CCCC)C(=O)c1cc(C)n(-c2ccc(NC(=O)Nc3ccc(OC)c(OC)c3)cc2C(=O)N2Cc3ccccc3C[C@H]2CO)n1 [Example 38] |
| 766 to 845 nM | 667 to 676 nM | CCCCN(CCCC)C(=O)c1cc(C)n(-c2ccc(NC(=O)Nc3ccccc3Cc3ccccc3)cc2C(=O)N2Cc3ccccc3C[C@H]2CO)n1 [Example 39] |
| 204 to 303 nM | 197 to 224 nM | CCCCN(CCCC)C(=O)c1cc(C)n(-c2ccc(NC(=O)Nc3c(Cl)cccc3Cl)cc2C(=O)N2Cc3ccccc3C[C@H]2CO)n1 [Example 40] |
| 923 to 969 nM | 888 to 970 nM | CCCCN(CCCC)C(=O)c1cc(C)n(-c2ccc(NC(=O)Nc3ccccc3OC(F)(F)F)cc2C(=O)N2Cc3ccccc3C[C@H]2CO)n1 [Example 41] |
